Source: patent publication US20250346606A1, “CAMPTOTHECIN COMPOUND, PREPARATION METHOD THEREFOR, AND APPLICATION THEREOF” (SICHUAN KELUN-BIOTECH BIOPHARMACEUTICAL CO., LTD., priority 2021, published 2025)
pIC50: −log10 of the molar value. Read-outs that look alike come from different tables or passages of the source.

Columns and labels:
Assay type in all cases: cell-based, Human
[1] = system: HCC1806 cells; assay: Inhibitory effect of compounds on HCC1806 cell proliferation
Outline: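 HCC1806 cells, once adhered, were exposed to diluted compound for 72 h. Viability was read by Cell Counting-Lite 2.0 luminescence, inhibition calculated against vehicle and cell-free background RLU, and IC50 fitted with a four-parameter model.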

[2] = system: Hela cells; assay: Inhibitory effect of compounds on Hela cell proliferation; details: read-out: IC50, inhibitory activity on Hela cell proliferation
[3] = system: NCI-H358 cells; assay: Inhibitory effect of compounds on NCI-H358 cell proliferation
Outline: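 Adherent NCI-H358 cells were exposed to compound for 72 h, then viability was read by luminescence (Cell Counting-Lite 2.0). Inhibition calculated from RLU relative to cell-free background and vehicle wells; IC50 from a four-parameter fit.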

[4] = system: A549 cells; assay: Inhibitory effect of compounds on A549 cell proliferation; details: read-out: IC50, inhibitory activity on A549 cell proliferation
[5] = system: HCC70 cells; assay: Inhibitory effect of compounds on HCC70 cell proliferation; details: read-out: IC50, inhibitory activity on HCC70 cell proliferation
Procedure: (1) Cell plating: First, tumor cells HCC70 were cultured in corresponding medium, then digested with trypsin, centrifuged, resuspended, and counted, and the cells were adjusted to an appropriate concentration for plating.
(§1) Co-incubation of the compound of the present disclosure and tumor cells: after the cells adhered to the wall, the medium was removed, and the diluted bioactive molecule (the compound of the present disclosure) was added to the wells of the above plate, and incubated for 72 h.
(§2) In vitro cell viability detection: After the incubation, 50 μL of Cell Counting-Lite™ 2.0 reagent (Vazyme/Novazyme) was added to each well, shaken and mixed well in the dark, reacted for 10 minutes, and then the detection was carried out with a microplate reader (manufacturer: BMG, Model: PHERAStar-FS) for reading. The background RLU was obtained by using cell-free medium (with Cell Counting-Lite™), and the vehicle RLU was obtained by using cell-containing medium (with Cell Counting-Lite™). Cell inhibition rate=1−(sample RLU−background RLU)/(solvent RLU−background RLU)×100%. According to the four-parameter model fitting curve, the half maximal inhibitory concentration (IC50) of the compound was calculated, and the detection results were shown in Table 16.

[6] = system: MDA-MB-231 cells; assay: Inhibitory effect of compounds on MDA-MB-231 cell proliferation; details: read-out: IC50, inhibitory activity on MDA-MB-231 cell proliferation
Procedure: (1) Cell plating: First, tumor cells MDA-MB-231 were cultured in corresponding medium, then digested with trypsin, centrifuged, resuspended, and counted, and the cells were adjusted to an appropriate concentration for plating.
as §1
as §2, with “18.” for “16.”

[7] = Homo sapiens, HCC1806, 72 h, read-out: IC50, inhibitory activity on HCC1806 cell proliferation, HCC1806 human breast squamous carcinoma cells, 72 h incubation, Cell Counting-Lite 2.0
[8] = Homo sapiens, NCI-H358, 72 h, read-out: IC50, inhibitory activity on NCI-H358 cell proliferation, NCI-H358 human non-small cell lung cancer cells, 72 h incubation, Cell Counting-Lite 2.0

## CC[C@@]1(O)C(=O)OCc2c1cc1n(c2=O)Cc2c-1nc1cc(Cl)c(C)c3c1c2[C@@H](NC(=O)[C@@H](O)C1CC1)CC3 [Example 5 (2-12-A), (2S)—N-((1S,9S)-5-chloro-9-ethyl-9-hydroxy-4-methyl-10,13-dioxo-2,3,9,10,13,15-hexahydro-1H,12H-benzo[de]pyrano[3′,4′:6,7]indolizino[1,2-b]quinolin-1-yl)-2-cyclopropyl-2-hydroxyacetamide]
[1]; [7]
  pIC50: 8.85
[2]; Homo sapiens, HeLa, 72 h
  pIC50: 7.88
[3]; [8]
  pIC50: 7.75
[4]; Homo sapiens, A549, 72 h
  pIC50: 8.16
[5]; Homo sapiens, HCC70, 72 h
  pIC50: 6.77
[6]; Homo sapiens, MDA-MB-231, 72 h
  pIC50: 6.91

## CC[C@@]1(O)C(=O)OCc2c1cc1n(c2=O)Cc2c-1nc1cc(Cl)c(C)c3c1c2[C@H](NC(=O)[C@@H](O)C1CC1)CC3 [Example 5 (2-12-B), (2S)—N-((1R,9S)-5-chloro-9-ethyl-9-hydroxy-4-methyl-10,13-dioxo-2,3,9,10,13,15-hexahydro-1H,12H-benzo[de]pyrano[3′,4′:6,7]indolizino[1,2-b]quinolin-1-yl)-2-cyclopropyl-2-hydroxyacetamide]
[1]; [7]
  pIC50: 8.97
[2]; Homo sapiens, HeLa, 72 h
  pIC50: 7.78
[3]; [8]
  pIC50: 7.80
[4]; Homo sapiens, A549, 72 h
  pIC50: 8.26
[5]; Homo sapiens, HCC70, 72 h
  pIC50: 6.75

## CC#C[C@@H](O)C(=O)N[C@H]1CCc2c(C)c(F)cc3nc4c(c1c23)Cn1c-4cc2c(c1=O)COC(=O)[C@]2(O)CC [Example 1 (1-1-A), (R)—N-((1S,9S)-9-ethyl-5-fluoro-9-hydroxy-4-methyl-10,13-dioxo-2,3,9,10,13,15-hexahydro-1H,12H-benzo[de]pyrano[3′,4′:6,7]indolizino[1,2-b]quinolin-1-yl)-2-hydroxypent-3-yneamide]
[2]; Homo sapiens, HeLa, 72 h
  pIC50: 8.34
[3]; [8]
  pIC50: 7.19
[4]; Homo sapiens, A549, 72 h
  pIC50: 7.18
[5]; Homo sapiens, HCC70, 72 h
  pIC50: 6.65
[6]; Homo sapiens, MDA-MB-231, 72 h
  pIC50: 6.44

## (2S)—N-((1S,9S)-5-chloro-9-ethyl-9-hydroxy-4-methyl-10,13-dioxo-2,3,9,10,13,15-hexahydro-1H,12H-benzo[de]pyrano[3′,4′:6,7]indolizino[1,2-b]quinolin-1-yl)-2-hydroxypropylamine [Example 4 (2-7-A)]
[1]; HCC1806 human breast squamous carcinoma cells, 72 h incubation, Cell Counting-Lite 2.0, read-out: IC50, inhibitory activity on HCC1806 cell proliferation
  pIC50: 8.90
[2]; Hela human cervical cancer cells, 72 h incubation, Cell Counting-Lite 2.0
  pIC50: 7.86
[3]; NCI-H358 human non-small cell lung cancer cells, 72 h incubation, Cell Counting-Lite 2.0, read-out: IC50, inhibitory activity on NCI-H358 cell proliferation
  pIC50: 7.45
[4]; A549 human lung cancer cells, 72 h incubation, Cell Counting-Lite 2.0
  pIC50: 8.16
[5]; HCC70 human breast cancer cells, 72 h incubation, Cell Counting-Lite 2.0
  pIC50: 6.82
[6]; MDA-MB-231 human breast cancer cells, 72 h incubation, Cell Counting-Lite 2.0
  pIC50: 6.91
